According to the supplement of paper PMC10307832:

Key:
Test in all cases: relative viability (nuclei count vs DMSO), 5 days (fraction); higher = more cells survive
[1] = test system: NCI-H1755
Procedure, shortened: (§1)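 A single step with final 0.05% Triton X-100, 1% formaldehyde and 1 ug/ml Hoechst fixed the cells and stained nuclei 5 days after treatment. Lung cancer cell lines in 1536-well plates had been treated by pin tool the day after seeding with one drug alone or a fixed anchor-drug dose plus five library-drug doses (not always all listed) in √10 steps, and nuclei were counted on 4× images. Relative viability is the ratio of nuclei in treated wells to nuclei in vehicle wells, taken as the median of duplicate plates.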

[2] = test system: PC-14
Procedure, shortened: as §1

[3] = test system: SK-MES-1
Procedure, shortened: as §1

[4] = test system: NCI-H661
Procedure, shortened: as §1

[5] = test system: NCI-H441
Procedure, shortened: as §1

[6] = test system: NCI-H1792
Procedure, shortened: as §1

[7] = test system: NCI-H596
Procedure, shortened: as §1

[8] = test system: LXF-289
Procedure, shortened: as §1

[9] = test system: NCI-H1915
Procedure, shortened: as §1

[10] = test system: NCI-H322M
Procedure, shortened: as §1

[11] = test system: NCI-H460
Procedure, shortened: as §1

[12] = test system: NCI-H1651
Procedure, shortened: as §1

[13] = test system: NCI-H520
Procedure, shortened: as §1

[14] = test system: NCI-H3122
Procedure, shortened: as §1

[15] = test system: SW 900
Procedure, shortened: as §1

[16] = test system: LCLC-103H
Procedure, shortened: as §1

[17] = test system: NCI-H1355
Procedure, shortened: as §1

[18] = test system: NCI-H727
Procedure, shortened: as §1

[19] = test system: NCI-H2347
Procedure, shortened: as §1

[20] = test system: RERF-LC-KJ
Procedure, shortened: as §1

[21] = test system: NCI-H522
Procedure, shortened: as §1

**Q.** Which results are given for `Nc1ccn([C@@H]2O[C@H](CO)[C@@H](O)[C@@H]2O)c(=O)n1` [Cytarabine] + CC(=O)Nc1cccc(-n2c(=O)n(C3CC3)c(=O)c3c(Nc4ccc(I)cc4F)n(C)c(=O)c(C)c32)c1 [Trametinib] (partner 0.02 µM)?
**A.** relative viability ([1]; first compound 0.005 µM): 0.827; relative viability ([1]; first compound 0.01581 µM): 0.76; relative viability ([1]; first compound 0.05 µM): 0.681; relative viability ([1]; first compound 0.1581 µM): 0.512; relative viability ([1]; first compound 0.5 µM): 0.407; relative viability ([2]; first compound 0.005 µM): 0.712; relative viability ([2]; first compound 0.01581 µM): 0.669; relative viability ([2]; first compound 0.05 µM): 0.515; relative viability ([2]; first compound 0.1581 µM): 0.0885; relative viability ([2]; first compound 0.5 µM): 0.079; relative viability ([3]; first compound 0.005 µM): 0.545; relative viability ([3]; first compound 0.01581 µM): 0.603; relative viability ([3]; first compound 0.05 µM): 0.315; relative viability ([3]; first compound 0.1581 µM): 0.215; relative viability ([3]; first compound 0.5 µM): 0.227; relative viability ([4]; first compound 0.005 µM): 0.574; relative viability ([4]; first compound 0.01581 µM): 0.571; relative viability ([4]; first compound 0.05 µM): 0.582; relative viability ([4]; first compound 0.1581 µM): 0.435; relative viability ([4]; first compound 0.5 µM): 0.385; relative viability ([5]; first compound 0.005 µM): 0.361; relative viability ([5]; first compound 0.01581 µM): 0.421; relative viability ([5]; first compound 0.05 µM): 0.451; relative viability ([5]; first compound 0.1581 µM): 0.242; relative viability ([5]; first compound 0.5 µM): 0.199; relative viability ([6]; first compound 0.01581 µM): 0.438; relative viability ([6]; first compound 0.05 µM): 0.356; relative viability ([6]; first compound 0.1581 µM): 0.213; relative viability ([6]; first compound 0.5 µM): 0.118; relative viability ([7]; first compound 0.005 µM): 0.812; relative viability ([7]; first compound 0.01581 µM): 0.759; relative viability ([7]; first compound 0.05 µM): 0.69; relative viability ([7]; first compound 0.1581 µM): 0.5; relative viability ([7]; first compound 0.5 µM): 0.499; relative viability ([8]; first compound 0.005 µM): 0.632; relative viability ([8]; first compound 0.01581 µM): 0.573; relative viability ([8]; first compound 0.05 µM): 0.62; relative viability ([8]; first compound 0.1581 µM): 0.428; relative viability ([8]; first compound 0.5 µM): 0.287; relative viability ([9]; first compound 0.005 µM): 0.438; relative viability ([9]; first compound 0.01581 µM): 0.285; relative viability ([9]; first compound 0.05 µM): 0.251; relative viability ([9]; first compound 0.1581 µM): 0.211; relative viability ([9]; first compound 0.5 µM): 0.18; relative viability ([10]; first compound 0.005 µM): 0.484; relative viability ([10]; first compound 0.01581 µM): 0.456; relative viability ([10]; first compound 0.05 µM): 0.441; relative viability ([10]; first compound 0.1581 µM): 0.429; relative viability ([10]; first compound 0.5 µM): 0.402; relative viability ([11]; first compound 0.005 µM): 0.13; relative viability ([11]; first compound 0.01581 µM): 0.111; relative viability ([11]; first compound 0.05 µM): 0.103; relative viability ([11]; first compound 0.1581 µM): 0.0544; relative viability ([11]; first compound 0.5 µM): 0.0417; relative viability ([12]; first compound 0.005 µM): 0.846; relative viability ([12]; first compound 0.01581 µM): 0.858; relative viability ([12]; first compound 0.05 µM): 0.818; relative viability ([12]; first compound 0.1581 µM): 0.591; relative viability ([12]; first compound 0.5 µM): 0.384; relative viability ([13]; first compound 0.005 µM): 0.696; relative viability ([13]; first compound 0.01581 µM): 0.684; relative viability ([13]; first compound 0.05 µM): 0.579; relative viability ([13]; first compound 0.1581 µM): 0.477; relative viability ([13]; first compound 0.5 µM): 0.484; relative viability ([14]; first compound 0.005 µM): 0.221; relative viability ([14]; first compound 0.01581 µM): 0.252; relative viability ([14]; first compound 0.05 µM): 0.187; relative viability ([14]; first compound 0.1581 µM): 0.177; relative viability ([14]; first compound 0.5 µM): 0.139; relative viability ([15]; first compound 0.005 µM): 0.83; relative viability ([15]; first compound 0.01581 µM): 0.653; relative viability ([15]; first compound 0.05 µM): 0.662; relative viability ([15]; first compound 0.1581 µM): 0.23; relative viability ([15]; first compound 0.5 µM): 0.243; relative viability ([16]; first compound 0.005 µM): 0.692; relative viability ([16]; first compound 0.01581 µM): 0.687; relative viability ([16]; first compound 0.05 µM): 0.671; relative viability ([16]; first compound 0.1581 µM): 0.682; relative viability ([16]; first compound 0.5 µM): 0.742; relative viability ([17]; first compound 0.005 µM): 0.367; relative viability ([17]; first compound 0.01581 µM): 0.38; relative viability ([17]; first compound 0.05 µM): 0.398; relative viability ([17]; first compound 0.1581 µM): 0.303; relative viability ([17]; first compound 0.5 µM): 0.282; relative viability ([18]; first compound 0.005 µM): 0.348; relative viability ([18]; first compound 0.01581 µM): 0.374; relative viability ([18]; first compound 0.05 µM): 0.354; relative viability ([18]; first compound 0.1581 µM): 0.336; relative viability ([18]; first compound 0.5 µM): 0.329; relative viability ([19]; first compound 0.005 µM): 0.277; relative viability ([19]; first compound 0.01581 µM): 0.309; relative viability ([19]; first compound 0.05 µM): 0.282; relative viability ([19]; first compound 0.1581 µM): 0.236; relative viability ([19]; first compound 0.5 µM): 0.257; relative viability ([20]; first compound 0.005 µM): 0.797; relative viability ([20]; first compound 0.01581 µM): 0.862; relative viability ([20]; first compound 0.05 µM): 0.716; relative viability ([20]; first compound 0.1581 µM): 0.498; relative viability ([20]; first compound 0.5 µM): 0.402; relative viability ([21]; first compound 0.005 µM): 0.823; relative viability ([21]; first compound 0.01581 µM): 0.75; relative viability ([21]; first compound 0.05 µM): 0.65; relative viability ([21]; first compound 0.1581 µM): 0.589; relative viability ([21]; first compound 0.5 µM): 0.515
